In patent publication US20030138935A1, “Selective deactivation of yeast in corn wet milling process slurries” (priority 2002, published 2003):
Where “and” joins values, the source holds several entries; their conditions need not be identical. Equal values may be shown once.

Tests used:
[1] = tested on: gas-producing microorganisms in corn wet milling heavy steepwater; assay: Flask Pressure Profile (gas production in heavy steepwater); format: cell-based, yeast; conditions: for Manometer readings: 100° F.
Protocol: All tests were conducted using heavy […] samples provided by a major U.S. corn wet milling facility. A Flask Pressure Profile method was developed and used to measure changes in gas production. The sample of heavy […] to an Erlenmeyer flask, then placed into a water bath at 100° F. and agitated slowly (30-40 rpm). The flask was connected to a U-tube manometer filled with distilled water. […] An increase in flask pressure indicated gas-producing microbial activity. Tests using octanoic acid were performed in […] ppm (control), 10 ppm, 25 ppm, and 50 ppm (active).

[2] = tested on: yeast and lactic acid producing bacteria; assay: Pour-plate culture on Sabourad-Dextrose Agar (SDA); format: cell-based, lactobacillus; conditions: for Plate Showing activity, SDA: serial dilution
Protocol: (§1) All tests were conducted using heavy […] samples provided by a major U.S. corn wet milling facility. To confirm the concept that octanoic acid is selective in killing only yeast but not desirable bacteria, microbiological activity was assessed by examining separate culture plates prepared using two different agars. Plates prepared using Potato-Dextrose Agar (PDA) were used to assess the fate of yeast in the present of octanoic acid, as PDA is known to be specific to the propagation of yeast and mold. Plates prepared using Sabourad-Dextrose Agar (SDA) were used to determine the fate of “desired” bacteria as SDA is specific for both yeast and lactic acid producing bacteria. Several serial dilutions (10^1 to 10^7) of heavy […] samples were prepared for the pour plates at 0 ppm (control), 10 ppm, 25 ppm, and 50 ppm (active) of octanoic acid, then agitated in a 100° F. shaking water bath for 4 hours. Plates were similarly prepared using the same samples after agitation for 24 hours. All plates were incubated at […]. for 4 days before performing measurements. In addition to inspecting the plates for microbial activity, aliquots of each sample (after 4 hours and after 24 hours) were examined under a microscope for visual speciation.

yeast and mold = assay: Pour-plate culture on Potato-Dextrose Agar (PDA); format: cell-based; conditions: test concentrations from 10-50 ppm; 4 hour and 24 hour incubations
Protocol: as §1

Question: How did the Manometer readings ([1]; 10 ppm, t = 0 hours) turn out when CCCCCCCC(=O)O [Octanoic Acid, Octanoic acid] was run?
Answer: 0.0 in H2O and 0 in H2O

Question: And the Manometer readings ([1]; 10 ppm, t = 1 hours)?
Answer: 0.0 in H2O

Question: And the Manometer readings ([1]; 10 ppm, t = 1.5 hours)?
Answer: 0.0 in H2O

Question: And the Manometer readings ([1]; 10 ppm, t = 2 hours)?
Answer: 0.0 in H2O

Question: And the Manometer readings ([1]; 10 ppm, t = 2.5 hours)?
Answer: 0.0 in H2O

Question: What about the Manometer readings ([1]; 10 ppm, t = 3 hours) of the same compound?
Answer: 0.0 in H2O

Question: And the Manometer readings ([1]; 10 ppm, t = 3.5 hours)?
Answer: 0.0 in H2O

Question: What about the Manometer readings ([1]; 10 ppm, t = 4 hours) of the same compound?
Answer: 0.0 in H2O

Question: And the Manometer readings ([1]; 10 ppm, t = 4.5 hours)?
Answer: 0.0 in H2O

Question: What about the Manometer readings ([1]; 10 ppm, t = 5 hours) of the same compound?
Answer: 0.0 in H2O

Question: And the Manometer readings ([1]; 10 ppm, t = 5.5 hours)?
Answer: 0.0 in H2O

Question: And the Manometer readings ([1]; 10 ppm, t = 6 hours)?
Answer: 0.0 in H2O

Question: What about the Manometer readings ([1]; 10 ppm, t = 6.5 hours) of the same compound?
Answer: 0.0 in H2O

Question: What about the Manometer readings ([1]; 25 ppm, t = 0 hours) of the same compound?
Answer: 0.0 in H2O

Question: And the Manometer readings ([1]; 25 ppm, t = 0.5 hours)?
Answer: 0.25 in H2O

Question: And the Manometer readings ([1]; 25 ppm, t = 1 hours)?
Answer: 0.0 in H2O

Question: And the Manometer readings ([1]; 25 ppm, t = 1.5 hours)?
Answer: 0.0 in H2O

Question: What about the Manometer readings ([1]; 25 ppm, t = 2 hours) of the same compound?
Answer: 0.0 in H2O

Question: And the Manometer readings ([1]; 25 ppm, t = 2.5 hours)?
Answer: 0.0 in H2O

Question: And the Manometer readings ([1]; 25 ppm, t = 3 hours)?
Answer: 0.0 in H2O

Question: And the Manometer readings ([1]; 25 ppm, t = 3.5 hours)?
Answer: 0.0 in H2O

Question: And the Manometer readings ([1]; 25 ppm, t = 4 hours)?
Answer: 0.0 in H2O

Question: What about the Manometer readings ([1]; 25 ppm, t = 4.5 hours) of the same compound?
Answer: 0.0 in H2O

Question: What about the Manometer readings ([1]; 25 ppm, t = 5 hours) of the same compound?
Answer: 0.0 in H2O

Question: What about the Manometer readings ([1]; 25 ppm, t = 5.5 hours) of the same compound?
Answer: 0.0 in H2O

Question: What about the Manometer readings ([1]; 25 ppm, t = 6 hours) of the same compound?
Answer: 0.0 in H2O

Question: What about the Manometer readings ([1]; 25 ppm, t = 6.5 hours) of the same compound?
Answer: 0.0 in H2O

Question: And the Manometer readings ([1]; 50 ppm, t = 0 hours)?
Answer: 0.0 in H2O

Question: And the Manometer readings ([1]; 50 ppm, t = 0.5 hours)?
Answer: 0.0 in H2O

Question: What about the Manometer readings ([1]; 50 ppm, t = 1 hours) of the same compound?
Answer: 0.0 in H2O

Question: What about the Manometer readings ([1]; 50 ppm, t = 1.5 hours) of the same compound?
Answer: 0.0 in H2O

Question: What about the Manometer readings ([1]; 50 ppm, t = 2 hours) of the same compound?
Answer: 0.0 in H2O

Question: And the Manometer readings ([1]; 50 ppm, t = 2.5 hours)?
Answer: 0.0 in H2O

Question: And the Manometer readings ([1]; 50 ppm, t = 3 hours)?
Answer: 0.0 in H2O

Question: And the Manometer readings ([1]; 50 ppm, t = 3.5 hours)?
Answer: 0.0 in H2O

Question: And the Manometer readings ([1]; 50 ppm, t = 4 hours)?
Answer: 0.0 in H2O

Question: And the Manometer readings ([1]; 50 ppm, t = 4.5 hours)?
Answer: 0.0 in H2O

Question: And the Manometer readings ([1]; 50 ppm, t = 5 hours)?
Answer: 0.0 in H2O

Question: What about the Manometer readings ([1]; 50 ppm, t = 5.5 hours) of the same compound?
Answer: 0.0 in H2O

Question: What about the Manometer readings ([1]; 50 ppm, t = 6 hours) of the same compound?
Answer: 0.0 in H2O

Question: What about the Manometer readings ([1]; 50 ppm, t = 6.5 hours) of the same compound?
Answer: 0.0 in H2O

Question: And the “Effect on gas-producing microorganisms” value ([1]; all of the applied dosages (10, 25, 50 ppm), heavy steepwater)?
Answer: effectively reduces all gas-producing microorganisms

Question: And the “Plate Showing activity, SDA” value ([2]; 10 ppm, sample incubation time 4 hrs)?
Answer: 10^2

Question: And the “Plate Showing activity, SDA” value ([2]; 10 ppm, sample incubation time 24 hrs)?
Answer: 10^2

Question: And the “Plate Showing activity, SDA” value ([2]; 25 ppm, sample incubation time 4 hrs)?
Answer: 10^1

Question: And the “Plate Showing activity, SDA” value ([2]; 25 ppm, sample incubation time 24 hrs)?
Answer: 10^2

Question: And the “Plate Showing activity, SDA” value ([2]; 50 ppm, sample incubation time 4 hrs)?
Answer: 10^2

Question: And the “Plate Showing activity, SDA” value ([2]; 50 ppm, sample incubation time 24 hrs)?
Answer: 10^2

Question: And the “Effect on activity of lactobacillus” value ([2]; test concentrations from 10-50 ppm, 4 hour and 24 hour incubations)?
Answer: do not measurably decrease the activity of lactobacillus

Question: And the Effect on yeast (yeast and mold)?
Answer: selectively kills the yeast
